Measurements from US20040057908A1, “Oral compositions and use thereof” (priority 2003, published 2004).
Converted amounts (≈) assume the structure as drawn. Read-outs that look alike come from different tables or passages of the source.

Tests used:
GTF B [1] = target: T1, GTF B (Streptococcus mutans serotype c, UniProt P08987); test: GTF activity in solution, GTF B; format: biochemical; conditions: mean (SD)
T1 construct: made in house; host or cells: Streptococcus milleri KSB8 (culture supernatant)
Protocol: (§1) Glucosyltransferase activity was measured by the incorporation of [^14C-glucose] from labeled sucrose (NEN Research Products, Boston, Mass.) into glucans (Germaine et al., 1974; Venkitaraman et al., 1995). The GTF enzyme added to each sample for all assays was equivalent to the amount required to incorporate 1.0-1.5 μmol of glucose over the four hours reaction (1.0-1.5 units).
(§2) For solution assays, purified GTF B, C, D and Ss were mixed with a two-fold dilution series of the test compounds (concentration ranging from 125 to 500 μM) and incubated with [^14C-glucose]-sucrose substrate (0.2 μCi/ml) (200.0 mmol/l sucrose, 40 μmol/l dextran 9000, 0.02% sodium azide in adsorption buffer—50 mM KCl, 1.0 mM KPO4, 1.0 mM CaCl2, 0.1 mM MgCl2−pH=6.5) to reach a final concentration of 100 mmol/l sucrose (200 μl final volume). For the control, the same reaction was carried out, where ethanol:DMSO (final concentration of 7.5% and 1.25%, v/v) or ethanol (final concentration of 5%, v/v) replaced the test agent solutions. The samples were incubated 37° C. with rocking for 4 h. After incubation, ice-cold ethanol (1.0 ml) was added and the samples were stored for 18 h, 4° C. for precipitation of glucans. Radiolabeled glucan was determined by scintillation counting (Germaine et al., 1974; Venkitaraman et al., 1995).

GTF B [2] = target: T1, GTF B; test: GTF activity adsorbed onto saliva-coated hydroxyapatite (sHA) surface, GTF B; format: biochemical; conditions: mean (SD)
Protocol: as §1
(§3) For surface assays, the GTFs were adsorbed to hydroxyapatite beads coated with clarified whole saliva (free of GTF activity), as detailed elsewhere (Koo et al., 2000c; Schilling and Bowen, 1988, Venkitaraman et al., 1995). The saliva-coated hydroxyapatite (sHA) beads were exposed to sufficient enzyme to saturate the surface as determined experimentally. Following the adsorption of the enzyme, the beads were washed 3 times with buffer to remove the loosely bound material and exposed to 300 μl of the two-fold dilution series of test compounds (or control) for 30 min. at the same concentrations described above. The beads were washed and exposed to 300 μl [^14C-glucose]-sucrose substrate (100.0 mmol/l sucrose, final concentration). The radiolabeled glucan formed was collected and quantified by scintillation counting (Germaine et al., 1974; Venkitaraman et al., 1995). All the solution and surface assays were done in quadruplicate in at least 3 different experiments.

GTF C [3] = target: T2, GTF C (Streptococcus mutans serotype c, UniProt P13470); test: GTF activity in solution, GTF C; format: biochemical; conditions: mean (SD)
T2 construct: The supernatant was carefully collected as the source of GTF C; made in house; host or cells: Streptococcus mutans WHB 410 (endogenous gtfC; urea/Triton extract of washed cells, hydroxyapatite chromatography)
Protocol: as §1, §2

GTF C [4] = target: T2, GTF C; test: GTF activity adsorbed onto sHA surface, GTF C; format: biochemical; conditions: mean (SD)
Protocol: as §1, §3

GTF D [5] = target: T3, GTF D (Streptococcus mutans serotype c, UniProt P49331); test: GTF activity in solution, GTF D; format: biochemical; conditions: mean (SD)
T3 construct: made in house; host or cells: Streptococcus milleri NH5 (culture supernatant)
Protocol: as §1, §2

GTF D [6] = target: T3, GTF D; test: GTF activity adsorbed onto sHA surface, GTF D; format: biochemical; conditions: mean (SD)
Protocol: as §1, §3

GTF Ss [7] = target: T4, GTF Ss (Streptococcus sanguinis, UniProt A3CLJ9); test: GTF activity in solution, GTF Ss; format: biochemical, S. sanguinis; conditions: mean (SD)
Protocol: as §1, §2

GTF Ss [8] = target: T4, GTF Ss; test: GTF activity adsorbed onto sHA surface, GTF Ss; format: biochemical, S. sanguinis; conditions: mean (SD)
Protocol: as §1, §3

[9] = system: Streptococcus mutans GS-5; test: MIC and MBC, broth dilution; format: cell-based
Protocol: (§4) The minimum inhibitory concentration (MIC) and minimum bactericidal concentration (MBC) were determined for each test compound according to the National Committee for Clinical Laboratory Standards guidelines (Tentative standard M26-T, 1992; NCCLS Publication No. M7-A5, 2000) and Koo et al. (2000b). The broth microdilution and macrodilution methods (in TSB) were used for the antibacterial tests. The starting inoculum was 5×10^5 CFU/ml and the concentrations of test compounds ranged from 15.6 to 500 μM (two-fold dilutions). The MICs and MBCs were determined in quadruplicate in at least 3 different experiments.

[10] = system: Streptococcus mutans UA 159; test: MIC and MBC, broth dilution; format: cell-based
Protocol: as §4

[11] = system: Streptococcus sobrinus 6715; test: MIC and MBC, broth dilution; format: cell-based
Protocol: as §4

[12] = system: Mutans Streptococci Strains; test: MIC and MBC, broth dilution, all strains stated together; format: cell-based, S. mutans (GS-5 and UA159) and S. sobrinus 6715
Protocol: as §4

streptococcal GTFs = system: T5, streptococcal GTFs; test: GTF activity in solution, all GTFs (B, C, D, Ss) stated together; format: biochemical, Streptococcus mutans, S. sanguinis; conditions: 125 to 500 μM; solution and surface not told apart
T5 construct: Streptococcus milleri KSB8, which harbors the gtfB gene from S. mutans GS-5 (for GTF B production)
Protocol: The GTF enzyme added to each sample for all assays was equivalent to the amount required to incorporate 1.0-1.5 μmol of glucose over the four hours reaction (1.0-1.5 units).
The samples were incubated 37° C. with rocking for 4 h.
For this assay, a one-way layout experimental design was used in 4×2×7 factorial scheme (enzyme×state×dose). An analysis of variance was carried out and qualitative treatments were compared using Tukey test at level of 5% of significance (p<0.05). A non-linear regression was applied in order to evaluate effects of different concentrations.

[13] = all strains tested (S. mutans GS-5, UA159, S. sobrinus 6715), read-out: MIC
[14] = Streptococcus mutans, all strains tested (S. mutans GS-5, UA159, S. sobrinus 6715), read-out: MIC

T1 sequence (P08987 35-1476): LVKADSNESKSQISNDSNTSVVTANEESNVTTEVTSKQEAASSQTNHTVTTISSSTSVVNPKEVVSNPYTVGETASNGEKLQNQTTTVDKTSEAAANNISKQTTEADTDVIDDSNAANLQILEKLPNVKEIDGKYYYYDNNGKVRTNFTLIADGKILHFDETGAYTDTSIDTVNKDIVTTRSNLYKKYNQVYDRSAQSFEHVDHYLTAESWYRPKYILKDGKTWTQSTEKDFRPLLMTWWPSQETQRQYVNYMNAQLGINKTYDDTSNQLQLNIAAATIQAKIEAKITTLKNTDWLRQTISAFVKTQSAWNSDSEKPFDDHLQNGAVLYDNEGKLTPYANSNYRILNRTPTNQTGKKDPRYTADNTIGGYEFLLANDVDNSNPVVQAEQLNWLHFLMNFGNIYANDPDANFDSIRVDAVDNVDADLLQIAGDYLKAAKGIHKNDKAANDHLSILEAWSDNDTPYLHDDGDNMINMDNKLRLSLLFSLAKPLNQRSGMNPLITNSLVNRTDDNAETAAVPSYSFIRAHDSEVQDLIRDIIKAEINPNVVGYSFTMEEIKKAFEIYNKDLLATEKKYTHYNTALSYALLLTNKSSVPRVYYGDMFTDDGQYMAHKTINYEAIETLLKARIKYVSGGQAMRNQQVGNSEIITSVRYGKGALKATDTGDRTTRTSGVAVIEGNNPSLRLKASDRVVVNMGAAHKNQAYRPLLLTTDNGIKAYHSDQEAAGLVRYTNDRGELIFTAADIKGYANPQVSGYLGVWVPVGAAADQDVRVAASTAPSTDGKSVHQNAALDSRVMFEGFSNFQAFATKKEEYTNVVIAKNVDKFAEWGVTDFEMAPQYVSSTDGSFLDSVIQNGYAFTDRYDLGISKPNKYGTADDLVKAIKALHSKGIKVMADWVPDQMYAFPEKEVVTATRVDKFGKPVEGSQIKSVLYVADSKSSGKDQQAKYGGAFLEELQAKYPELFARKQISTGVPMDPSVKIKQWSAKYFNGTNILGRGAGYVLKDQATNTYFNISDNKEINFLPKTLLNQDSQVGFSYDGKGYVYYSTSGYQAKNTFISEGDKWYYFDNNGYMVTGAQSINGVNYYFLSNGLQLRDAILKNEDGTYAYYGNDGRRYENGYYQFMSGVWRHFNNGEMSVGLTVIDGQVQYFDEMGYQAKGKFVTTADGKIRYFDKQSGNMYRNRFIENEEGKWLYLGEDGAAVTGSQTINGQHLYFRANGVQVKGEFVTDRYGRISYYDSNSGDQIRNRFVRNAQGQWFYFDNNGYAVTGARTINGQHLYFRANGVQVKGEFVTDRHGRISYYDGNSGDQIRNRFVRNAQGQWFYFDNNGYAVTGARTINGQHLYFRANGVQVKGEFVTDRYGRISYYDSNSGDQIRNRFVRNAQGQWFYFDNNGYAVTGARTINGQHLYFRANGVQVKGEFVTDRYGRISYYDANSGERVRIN
T2 sequence (P13470 35-1455): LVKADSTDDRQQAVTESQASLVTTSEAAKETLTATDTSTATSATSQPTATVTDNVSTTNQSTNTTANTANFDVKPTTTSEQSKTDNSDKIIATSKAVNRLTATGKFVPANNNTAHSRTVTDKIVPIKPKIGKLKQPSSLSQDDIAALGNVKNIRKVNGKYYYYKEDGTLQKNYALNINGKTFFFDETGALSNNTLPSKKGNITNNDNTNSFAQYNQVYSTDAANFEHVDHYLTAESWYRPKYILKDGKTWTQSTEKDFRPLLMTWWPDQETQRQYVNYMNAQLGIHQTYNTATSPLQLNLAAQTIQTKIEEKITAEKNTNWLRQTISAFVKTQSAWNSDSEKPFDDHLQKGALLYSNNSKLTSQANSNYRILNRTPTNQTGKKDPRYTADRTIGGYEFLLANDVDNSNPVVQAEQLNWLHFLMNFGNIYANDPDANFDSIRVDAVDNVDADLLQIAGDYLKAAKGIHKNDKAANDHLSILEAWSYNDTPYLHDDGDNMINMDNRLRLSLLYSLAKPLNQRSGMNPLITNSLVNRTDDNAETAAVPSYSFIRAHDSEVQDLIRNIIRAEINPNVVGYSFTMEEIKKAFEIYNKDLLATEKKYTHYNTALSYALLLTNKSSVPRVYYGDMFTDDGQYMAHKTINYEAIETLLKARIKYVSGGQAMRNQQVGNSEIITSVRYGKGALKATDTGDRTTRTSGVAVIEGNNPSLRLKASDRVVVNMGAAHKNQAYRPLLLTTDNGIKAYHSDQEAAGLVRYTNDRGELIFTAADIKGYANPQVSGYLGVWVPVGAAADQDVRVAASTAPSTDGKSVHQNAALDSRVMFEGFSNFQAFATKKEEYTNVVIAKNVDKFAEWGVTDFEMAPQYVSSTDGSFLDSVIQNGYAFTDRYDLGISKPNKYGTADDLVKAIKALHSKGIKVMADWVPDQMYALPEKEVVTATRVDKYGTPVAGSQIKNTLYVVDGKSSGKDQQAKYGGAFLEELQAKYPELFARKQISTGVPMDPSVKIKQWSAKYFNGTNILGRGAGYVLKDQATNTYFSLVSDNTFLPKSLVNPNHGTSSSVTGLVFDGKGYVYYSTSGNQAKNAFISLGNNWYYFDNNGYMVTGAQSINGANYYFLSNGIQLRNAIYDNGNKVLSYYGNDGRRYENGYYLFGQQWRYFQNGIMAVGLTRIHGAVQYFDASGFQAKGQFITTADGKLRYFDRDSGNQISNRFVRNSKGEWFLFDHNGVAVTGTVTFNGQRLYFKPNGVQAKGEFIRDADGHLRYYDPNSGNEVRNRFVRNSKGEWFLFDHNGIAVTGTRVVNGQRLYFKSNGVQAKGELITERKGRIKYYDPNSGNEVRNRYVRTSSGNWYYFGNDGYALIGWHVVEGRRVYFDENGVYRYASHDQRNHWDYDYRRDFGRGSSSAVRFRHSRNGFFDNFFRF
T3 sequence (P49331 whole entry): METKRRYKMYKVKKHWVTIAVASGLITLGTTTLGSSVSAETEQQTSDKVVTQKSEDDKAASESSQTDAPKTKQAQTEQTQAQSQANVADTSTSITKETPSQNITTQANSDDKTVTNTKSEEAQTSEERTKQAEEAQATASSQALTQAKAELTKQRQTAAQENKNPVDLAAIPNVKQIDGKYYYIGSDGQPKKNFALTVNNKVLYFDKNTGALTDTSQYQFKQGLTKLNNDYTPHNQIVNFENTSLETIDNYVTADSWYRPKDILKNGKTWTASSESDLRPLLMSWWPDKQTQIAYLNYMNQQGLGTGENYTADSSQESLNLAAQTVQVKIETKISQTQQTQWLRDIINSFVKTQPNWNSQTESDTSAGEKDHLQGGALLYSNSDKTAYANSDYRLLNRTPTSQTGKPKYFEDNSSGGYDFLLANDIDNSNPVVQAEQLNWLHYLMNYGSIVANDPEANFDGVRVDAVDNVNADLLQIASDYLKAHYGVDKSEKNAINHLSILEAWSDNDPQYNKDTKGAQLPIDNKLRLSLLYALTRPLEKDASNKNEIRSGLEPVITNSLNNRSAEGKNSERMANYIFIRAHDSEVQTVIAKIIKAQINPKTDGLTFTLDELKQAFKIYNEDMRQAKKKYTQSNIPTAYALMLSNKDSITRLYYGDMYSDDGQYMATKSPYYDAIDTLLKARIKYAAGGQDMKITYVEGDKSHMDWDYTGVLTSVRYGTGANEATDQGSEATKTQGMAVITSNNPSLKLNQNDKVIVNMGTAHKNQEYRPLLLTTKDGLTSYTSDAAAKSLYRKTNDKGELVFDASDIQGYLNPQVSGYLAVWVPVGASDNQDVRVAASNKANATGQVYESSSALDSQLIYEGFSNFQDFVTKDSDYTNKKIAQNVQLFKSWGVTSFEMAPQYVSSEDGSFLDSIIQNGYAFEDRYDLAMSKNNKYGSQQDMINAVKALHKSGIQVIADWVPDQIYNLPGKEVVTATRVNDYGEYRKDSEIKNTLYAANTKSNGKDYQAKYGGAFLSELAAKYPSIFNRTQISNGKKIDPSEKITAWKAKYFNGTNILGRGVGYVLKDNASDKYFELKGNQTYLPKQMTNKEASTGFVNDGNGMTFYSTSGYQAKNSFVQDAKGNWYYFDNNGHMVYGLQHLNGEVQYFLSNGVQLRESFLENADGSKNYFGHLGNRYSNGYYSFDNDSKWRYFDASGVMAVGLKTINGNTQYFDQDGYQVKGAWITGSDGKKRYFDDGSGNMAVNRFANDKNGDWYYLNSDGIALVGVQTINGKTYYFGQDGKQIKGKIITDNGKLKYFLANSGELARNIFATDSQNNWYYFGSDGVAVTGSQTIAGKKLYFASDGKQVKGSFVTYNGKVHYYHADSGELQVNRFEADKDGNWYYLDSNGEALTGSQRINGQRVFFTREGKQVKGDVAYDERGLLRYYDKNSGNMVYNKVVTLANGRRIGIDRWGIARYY

## CC(=O)O[C@H]1C(=O)c2c(O)cc(O)cc2O[C@@H]1c1ccccc1 [Pinobanksin-3-acetate]
GTF B [1]; 125 μM
  GTF B sol. % of Inhib.: 0.0 (0.8) %
GTF B [1]; 250 μM
  GTF B sol. % of Inhib.: 7.7 (3.5) %
GTF B [1]; 500 μM
  GTF B sol. % of Inhib.: 18.9 (2.8) %
GTF B [2]; 125 μM
  GTF B surf. % of Inhib.: 9.4 (4.8) %
GTF B [2]; 250 μM
  GTF B surf. % of Inhib.: 7.3 (2.1) %
GTF B [2]; 500 μM
  GTF B surf. % of Inhib.: 10.3 (3.5) %
GTF C [3]; 125 μM
  GTF C sol. % of Inhib.: 0.0 (0.0) %
GTF C [3]; 250 μM
  GTF C sol. % of Inhib.: 3.5 (4.2) %
GTF C [3]; 500 μM
  GTF C sol. % of Inhib.: 16.7 (4.3) %
GTF C [4]; 125 μM
  GTF C surf. % of Inhib.: 0.0 (0.1) %
GTF C [4]; 250 μM
  GTF C surf. % of Inhib.: 0.0 (0.0) %
GTF C [4]; 500 μM
  GTF C surf. % of Inhib.: 0.0 (3.3) %
GTF D [5]; 125 μM
  GTF D sol. % of Inhib.: 5.5 (4.5) %
GTF D [5]; 250 μM
  GTF D sol. % of Inhib.: 2.7 (3.3) %
GTF D [5]; 500 μM
  GTF D sol. % of Inhib.: 3.5 (2.1) %
GTF D [6]; 125 μM
  GTF D surf. % of Inhib.: 0.0 (0.0) %
GTF D [6]; 250 μM
  GTF D surf. % of Inhib.: 4.5 (2.0) %
GTF D [6]; 500 μM
  GTF D surf. % of Inhib.: 10.1 (2.8) %
GTF Ss [7]; 125 μM
  GTF Ss sol. % of Inhib.: 4.6 (5.7) %
GTF Ss [7]; 250 μM
  GTF Ss sol. % of Inhib.: 22.8 (3.6) %
GTF Ss [7]; 500 μM
  GTF Ss sol. % of Inhib.: 30.5 (7.2) %
GTF Ss [8]; 125 μM
  GTF Ss surf. % of Inhib.: 0.0 (0.6) %
GTF Ss [8]; 250 μM
  GTF Ss surf. % of Inhib.: 0.0 (2.7) %
GTF Ss [8]; 500 μM
  GTF Ss surf. % of Inhib.: 9.9 (5.9) %
[9]
  MBC: >500 µM
  MIC: 500 µM (≈ 157 µg/mL)
[10]
  MBC: >500 µM
  MIC: 500 µM (≈ 157 µg/mL)
[11]; Streptococcus sobrinus 6715
  MBC: >500 µM
  MIC: 250 µM (≈ 78.6 µg/mL)
[12]; all strains tested
  MIC: 157 µg/mL
[12]; [13]
  MIC: 500 µM

## O=C1C[C@@H](c2ccccc2)Oc2cc(O)cc(O)c21 [Pinocembrin]
GTF B [1]; 125 μM
  GTF B sol. % of Inhib.: 3.7 (5.2) %
GTF B [1]; 250 μM
  GTF B sol. % of Inhib.: 7.2 (1.6) %
GTF B [1]; 500 μM
  GTF B sol. % of Inhib.: 15.9 (4.7) %
GTF B [2]; 125 μM
  GTF B surf. % of Inhib.: 0.7 (3.3) %
GTF B [2]; 250 μM
  GTF B surf. % of Inhib.: 8.8 (4.3) %
GTF B [2]; 500 μM
  GTF B surf. % of Inhib.: 18.9 (5.4) %
GTF C [3]; 125 μM
  GTF C sol. % of Inhib.: 0.0 (0.7) %
GTF C [3]; 250 μM
  GTF C sol. % of Inhib.: 8.5 (3.2) %
GTF C [3]; 500 μM
  GTF C sol. % of Inhib.: 17.2 (4.2) %
GTF C [4]; 125 μM
  GTF C surf. % of Inhib.: 0.0 (0.0) %
GTF C [4]; 250 μM
  GTF C surf. % of Inhib.: 0.4 (0.1) %
GTF C [4]; 500 μM
  GTF C surf. % of Inhib.: 13.5 (4.9) %
GTF D [5]; 125 μM
  GTF D sol. % of Inhib.: 1.5 (0.1) %
GTF D [5]; 250 μM
  GTF D sol. % of Inhib.: 4.8 (2.7) %
GTF D [5]; 500 μM
  GTF D sol. % of Inhib.: 14.9 (4.2) %
GTF D [6]; 125 μM
  GTF D surf. % of Inhib.: 0.0 (0.7) %
GTF D [6]; 250 μM
  GTF D surf. % of Inhib.: 8.2 (2.7) %
GTF D [6]; 500 μM
  GTF D surf. % of Inhib.: 15.5 (6.2) %
GTF Ss [7]; 125 μM
  GTF Ss sol. % of Inhib.: 25.7 (4.1) %
GTF Ss [7]; 250 μM
  GTF Ss sol. % of Inhib.: 32.6 (6.8) %
GTF Ss [7]; 500 μM
  GTF Ss sol. % of Inhib.: 45.7 (8.3) %
GTF Ss [8]; 125 μM
  GTF Ss surf. % of Inhib.: 0.0 (0.2) %
GTF Ss [8]; 250 μM
  GTF Ss surf. % of Inhib.: 0.0 (4.2) %
GTF Ss [8]; 500 μM
  GTF Ss surf. % of Inhib.: 10.5 (2.7) %
[9]
  MBC: >500 µM
  MIC: 250 µM (≈ 64.1 µg/mL)
[10]
  MBC: >500 µM
  MIC: 250 µM (≈ 64.1 µg/mL)
[11]; S. sobrinus 6715
  MBC: 128 µg/mL
[11]; Streptococcus sobrinus 6715
  MBC: 500 µM
  MIC: 250 µM (≈ 64.1 µg/mL)
[12]; all strains tested
  MIC: 64 µg/mL
[12]; [13]
  MIC: 250 µM

## O=C(O)c1ccc(O)c(O)c1 [Protocatechuic acid]
Streptococcal GTFs
  effects on GTF enzymes (in words): enhanced
[12]; Streptococcus mutans
  MIC: > 500 µM

## COc1cc(O)c2c(c1)O[C@H](c1ccc(O)cc1)CC2=O [Sakuranetin]
[9]
  MBC: >500 µM
  MIC: >500 µM
[10]
  MBC: >500 µM
  MIC: >500 µM
[11]; Streptococcus sobrinus 6715
  MBC: >500 µM
  MIC: 500 µM (≈ 143 µg/mL)

## COc1cc(C=O)cc(OC)c1O [Syringaldehyde]
[12]; Streptococcus mutans
  MIC: > 500 µM

## COc1cc(C=O)ccc1O [Vanillin]
[12]; [14]
  MIC: > 500 µM

## O=C(O)/C=C/c1ccc(O)cc1 [p-Coumaric acid]
[12]; [14]
  MIC: > 500 µM
